In patent US7479493B2, “Substituted benzyl amine compounds” (Janssen Pharmaceutica N.V., priority 2006, dated 2009):

Columns and labels:
cloned human H3 receptor = cloned human H3 receptor (Homo sapiens, UniProt Q9Y5N1); assay: H3 Receptor Binding; settings: cloned human H3 receptor stably expressed in SK-N-MC cells
Rat SERT = Rat SERT (Rattus norvegicus, UniProt P31652); assay: biochemical
Rat SERT, sequence (P31652 whole entry): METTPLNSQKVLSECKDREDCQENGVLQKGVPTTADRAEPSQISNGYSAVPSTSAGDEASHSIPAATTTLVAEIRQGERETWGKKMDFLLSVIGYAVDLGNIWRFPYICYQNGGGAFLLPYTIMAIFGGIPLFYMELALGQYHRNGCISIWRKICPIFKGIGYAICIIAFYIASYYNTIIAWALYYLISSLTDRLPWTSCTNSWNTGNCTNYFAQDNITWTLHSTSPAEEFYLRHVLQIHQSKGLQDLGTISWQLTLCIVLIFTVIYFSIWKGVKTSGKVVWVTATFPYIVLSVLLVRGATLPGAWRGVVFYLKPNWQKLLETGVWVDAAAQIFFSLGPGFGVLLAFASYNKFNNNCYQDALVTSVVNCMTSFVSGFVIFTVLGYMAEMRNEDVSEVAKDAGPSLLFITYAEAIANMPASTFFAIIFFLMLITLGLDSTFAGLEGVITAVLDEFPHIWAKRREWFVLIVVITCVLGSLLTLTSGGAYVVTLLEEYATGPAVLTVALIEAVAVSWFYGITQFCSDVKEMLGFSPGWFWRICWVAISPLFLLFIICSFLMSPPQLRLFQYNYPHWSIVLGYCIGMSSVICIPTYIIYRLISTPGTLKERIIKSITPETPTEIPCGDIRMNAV
Description: The supernatant was removed and re-centrifuged at 15,000 rpm for 30 min. […] Membranes were incubated with 0.6 nM [^3H]-Citalopram plus/minus test compounds for 60 min at 25° C. and harvested by rapid filtration over GF/C glass fiber filters (pretreated with 0.3% polyethylenimine) followed by four washes with ice-cold buffer. Nonspecific binding was defined in the presence of 100 μM fluoxetine.

cloned human H3 receptor, sequence (Q9Y5N1 whole entry): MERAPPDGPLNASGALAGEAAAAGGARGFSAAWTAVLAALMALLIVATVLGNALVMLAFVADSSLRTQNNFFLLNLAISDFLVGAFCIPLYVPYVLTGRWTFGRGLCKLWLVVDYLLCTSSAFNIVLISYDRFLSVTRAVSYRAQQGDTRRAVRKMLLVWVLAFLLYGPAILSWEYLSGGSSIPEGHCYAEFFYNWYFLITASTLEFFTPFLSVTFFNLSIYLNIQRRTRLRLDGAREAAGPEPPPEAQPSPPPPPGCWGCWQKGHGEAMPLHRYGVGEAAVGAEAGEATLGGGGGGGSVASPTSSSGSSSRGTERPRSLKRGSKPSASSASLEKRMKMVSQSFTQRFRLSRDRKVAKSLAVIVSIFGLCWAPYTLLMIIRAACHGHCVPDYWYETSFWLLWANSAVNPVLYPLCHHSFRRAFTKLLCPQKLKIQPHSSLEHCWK

Compound | Ki (cloned human H3 receptor) [nM] | Ki (Rat SERT) [nM]
CNCc1cc(N2CCN(C3CC3)CCC2=O)ccc1Oc1ccc(SC)cc1 [Example 57, 1-Cyclopropyl-4-[3-methylaminomethyl-4-(4-methylsulfanyl-phenoxy)-phenyl]-[1,4]diazepan-5-one] | 37 | 4
CNCc1cc(N2CC[C@H](N(C)C)C2)ccc1Oc1ccc(SC)cc1 [Example 58, (S)-Dimethyl-{1-[3-methylaminomethyl-4-(4-methylsulfanyl-phenoxy)-phenyl]-pyrrolidin-3-yl}-amine] | 300 | 6
CNCc1cc(C(=O)N2CCN(C3CC3)CC2)ccc1OCc1ccc(Cl)c(Cl)c1 [Example 59, (4-Cyclopropyl-piperazin-1-yl)-[4-(3,4-dichloro-benzyloxy)-3-methylaminomethyl-phenyl]-methanone] | 70 | 4
CSc1ccc(Oc2ccc(CN3CCN(C(C)C)CC3)cc2CN(C)C)cc1 [Example 62, [5-(4-Isopropyl-piperazin-1-ylmethyl)-2-(4-methylsulfanyl-phenoxy)-benzyl]-dimethyl-amine] | 21 | 1
CCNCc1cc(CN2CCN(C(C)C)CC2)ccc1Oc1ccc(SC)cc1 [Example 63, Ethyl-[5-(4-isopropyl-piperazin-1-ylmethyl)-2-(4-methylsulfanyl-phenoxy)-benzyl]-amine] | 0.9 | 6
CSc1ccc(Oc2ccc(CN3CCN(C(C)C)CC3)cc2CN)cc1 [Example 65, 5-(4-Isopropyl-piperazin-1-ylmethyl)-2-(4-methylsulfanyl-phenoxy)-benzylamine] | 4 | 18
CNCc1cc(CN2CCC(=O)N(C(C)C)CC2)ccc1Oc1ccc(Cl)c(Cl)c1 [Example 68, 1-[4-(3,4-Dichloro-phenoxy)-3-methylaminomethyl-benzyl]-4-isopropyl-[1,4]diazepan-5-one] | 6300 | 7

The remaining lines, values ahead:

Ki (cloned human H3 receptor) [nM] | Ki (Rat SERT) [nM] | Compound
27 | 10 | CNCc1cc(N2CCCN(C(C)C)CC2)ccc1Oc1ccc(Cl)c(Cl)c1 [Example 55, [2-(3,4-Dichloro-phenoxy)-5-(4-isopropyl-[1,4]diazepan-1-yl)-benzyl]-methyl-amine]
25 | 16 | CNCc1cc(N2CCCN(C3CC3)CC2)ccc1Oc1ccc(Cl)c(Cl)c1 [Example 56, [5-(4-Cyclopropyl-[1,4]diazepan-1-yl)-2-(3,4-dichloro-phenoxy)-benzyl]-methyl-amine]
2 | 3 | CSc1ccc(Oc2ccc(CN3CCN(C(C)C)CC3)cc2CNC2CC2)cc1 [Example 60, Cyclopropyl-[5-(4-isopropyl-piperazin-1-ylmethyl)-2-(4-methylsulfanyl-phenoxy)-benzyl]-amine]
2 | 0.8 | CNCc1cc(CN2CCN(C(C)C)CC2)ccc1Oc1ccc(SC)cc1 [Example 61, [5-(4-Isopropyl-piperazin-1-ylmethyl)-2-(4-methylsulfanyl-phenoxy)-benzyl]-methyl-amine]
0.5 | 7 | CSc1ccc(Oc2ccc(CN3CCN(C(C)C)CC3)cc2CNC(C)C)cc1 [Example 64, Isopropyl-[5-(4-isopropyl-piperazin-1-ylmethyl)-2-(4-methylsulfanyl-phenoxy)-benzyl]-amine]
2500 | 6 | CNCc1cc(CN2CCN(C(C)C)C(=O)C2)ccc1Oc1ccc(Cl)c(Cl)c1 [Example 66, 4-[4-(3,4-Dichloro-phenoxy)-3-methylaminomethyl-benzyl]-1-isopropyl-piperazin-2-one]
6 | 4 | CNCc1cc(CN2CCN(C(C)C)CC2=O)ccc1Oc1ccc(Cl)c(Cl)c1 [Example 67, 1-[4-(3,4-Dichloro-phenoxy)-3-methylaminomethyl-benzyl]-4-isopropyl-piperazin-2-one]
110 | 4 | CNCc1cc(CN2CCN(C(C)C)CCC2=O)ccc1Oc1ccc(Cl)c(Cl)c1 [Example 69, 4-[4-(3,4-Dichloro-phenoxy)-3-methylaminomethyl-benzyl]-1-isopropyl-[1,4]diazepan-5-one]
